Measured values as given in patent publication US9980972B2, “Rho kinase inhibitors for use in treating familial amyotrophic lateral sclerosis” (GEORG-AUGUST-UNIVERSITÄT GÖTTINGEN STIFTUNG ÖFFENTLICHEN …, priority 2012, dated 2018).

Experiments:
[1] = system: spinal cord astroglia of SOD1 G93A mice; test: GFAP positive astrocytes in ventral horn of lumbar spinal cord (astrogliosis); type: in vivo, mouse; settings: for numbers of GFAP positive astroglia: time of death, presymptomatic
Method: After deep anaesthesia, mice were transcardially perfused with PBS solution followed by 4% paraformaldehyde. Spinal cords, sciatic nerves and gastrocnemius muscles were removed. Spinal cords and gastrocnemius muscles were then postfixed for 2 h in 4% paraformaldehyde. Thereafter, the tissue was dehydrated in 30% sucrose overnight and kept at −20° C. until further processing. Coronal sections of the lumbar spinal cord (L3-L6) (20 μm) and horizontal sections of the tibial muscle (35 μm) were prepared using a Leica Kryostat and collected on gelatine-coated glass slides.
Spinal cord sections selected for immunohistochemical processing were first rehydrated. Then antigen-retrieval was performed for 4 h in TBS at 60° C. for later GFAP or Iba1 labeling and for 30 min in sodium citrate (pH 9.0) at 80° C. for later ChAT labeling. After washing for one time in PBS the sections were incubated at room temperature either in PBS and 10% of normal goat serum for later GFAP labeling or in PBS and 5% normal donkey serum for later ChAT labeling to block unspecific binding. The primary antibodies (anti-ChAT 1:100, AB144 P, Millipore; anti-GFAP 1:200, DAKO; anti-Iba1 1:500, WAKO, Osaka, Japan) were applied at 4° C. for one night for GFAP and for three nights for ChAT. The secondary antibodies (Cy3 anti-goat or Cy2/Dylight anti rabbit; both Dianova) were applied on separate sections 1:300 for 1 h at room temperature. Then a nuclear counter-stain with DAPI (4,6-diamidino-2-phenylindole) (Sigma-Aldrich) was performed before mounting in Moviol (Hoechst, Frankfurt, Germany).
Astrogliosis and microgliosis were evaluated by the quantification of GFAP or Iba1 positive cells in the ventral horn of lumbar spinal cord sections, respectively. Again, the area of the ventral horn was defined and GFAP or Iba1 positive cells were manually counted. In the d50 treatment group analyzed at death, a total of 20 mice was counted from the vehicle (3 male, 3 female), Fas30 (3 male, 3 female), Fas100 (3 male, 3 female) and wildtype (1 male, 1 female) group. In the d50 treatment group analyzed at d100, a total of 20 mice was counted from the vehicle (3 male, 3 female), Fas30 (3 male, 3 female), Fas100 (3 male, 3 female) and wildtype (1 male, 1 female) group.
Reactive astrogliosis represents another parameter in the evaluation of histologic manifestation of ALS disease. In human ALS patients, the clinical progression of this neurodegenerative disease seems to be associated with changes in astrocytic cell infiltration in the spinal cord. Therefore, the inventors evaluated the extent of astrogliosis in the lumbar spinal cord by counting the number of GFAP positive astroglial cells in the ventral horn and normalized values to area (FIG. 12).

[2] = system: sciatic nerve axons of SOD1 G93A mice; test: Sciatic nerve axon numbers (axonal degeneration); type: in vivo, mouse; settings: day 100, female, Fas30 vs transgenic vehicle
Method: Sciatic nerves were removed separately and postfixed for 24 h in 4% paraformaldehyde. […] After three washing steps the nerves were embedded in […] and Propylenoxide with a ratio of first 1:1 and then 2:1, each for 35 min. Before putting into a flat mould for drying and harding, Propylenoxide had to evaporate under a hood for 1 h. The sciatic nerves embedded in […] blocks were cut with a Microtom (Leica Ultracut) into semithin sections (380 nm) and were collected on gelatine coated glass slides. […] After washing in distilled water, slices were dried and mounted in […] cuts of sciatic nerve axons were evaluated from light microscopy images for axonal numbers and axoplasm size with the semi-automated counting and size measuring tool of the Image J software. In the d50 treatment group analyzed at […], a total of 17 female mice were counted from vehicle (5), Fas30 (7), and wildtype (5).

[3] = system: neuromuscular junctions of SOD1 G93A mice; test: NMJ integrity of gastrocnemius muscle; type: in vivo, mouse; settings: Fasudil vs control treated animals
[4] = system: wildtype primary motoneurons in astrocyte/motoneuron co-culture; test: Kainic acid toxicity in astrocyte/motoneuron co-culture; type: cell-based; settings: KA exposure 24 h, Fasudil 4 or 20 μM, co-culture with astrocytes
Text: In order to compare the Fasudil neuroprotective effect on motoneurons in vivo with an corresponding in vitro paradigm the inventors subjected wildtype primary motoneurons cultured in a astrocyte/motoneuron co-culture to kainic acid (KA) toxicity.

primary microglia = test: Microglial viability, WST-1 metabolic activity; type: cell-based, mouse; settings: up to 50 μM Fasudil
Method: Microglial viability was assayed as metabolic activity using WST-1 reagent (4-[3-(4-iodophenyl)-2-(4-nitrophenyl)-2H-5-tetrazolio]-1,3-benzene disulfonate), based on the enzymatic cleavage of WST tetrazolium salt to formazan by the succinate-tetrazolium reductase system of the respiratory chain of intact mitochondria. The assay was performed according to the instructions of the manufacturer (Roche Applied Science, Mannheim, Germany). After 3 h of incubation, the resulting color reaction was measured at 450 nm (with 655 nm as the reference wavelength) in a microplate reader (Bio-Rad, Munich, Germany).

O=S(=O)(c1cccc2cnccc12)N1CCCNCC1 [Fasudil, 1-(5-isoquinolinesulfonyl)homopiperazine]
GFAP cell number ([1]; day 100, female, presymptomatic Fas30 vs transgenic vehicle): significantly reduced | numbers of GFAP positive astroglia ([1]; Fas30 female, vehicle female 28.91±4.7): 31.6±5.9 per 0.2 mm^2 | numbers of GFAP positive astroglia ([1]; Fas30 male, vehicle male 31.3±4.7): 38.2±4.4 per 0.2 mm^2 | numbers of GFAP positive astroglia ([1]; Fas100 female, vehicle female 28.91±4.7): 27.9±4.0 per 0.2 mm^2 | numbers of GFAP positive astroglia ([1]; Fas100 male, vehicle male 31.3±4.7): 29.24±4.5 per 0.2 mm^2 | axonal number by axoplasmal diameter size range [2]: no significant differences | total number of preserved axons in the sciatic nerve [2]: comparable axon numbers | sciatic nerve axonal pathology and NMJ integrity of gastrocnemius muscle [3]: no significant differences | survival of KA exposed motoneurons [4]: protected motoneurons from KA induced cell death | microglial metabolic activity (WST-1) (primary microglia): no reduction in metabolic activity
